In data set [1] the test system is S. enteritidis. Kind of data set: microbe, parasite or virus in culture. It is filed as cell-based. The settings on record: Salmonella enterica, MHB, 18 h, 37°C, triplicate; for MBC: colony counting; for MIC: turbidity.
Text: S. aureus and S. enteritidis isolates were obtained from laboratory clinical isolates, and avian pathogenic E. coli was kindly provided by Professor Qingke Kong (College of Veterinary Medicine, Southwest University). Mueller–Hinton broth (MHB; Beijing Land Bridge Technology Co., Ltd., China) was used as bacterial growth media for antimicrobial activity assays, and Luria–Bertani (LB; Qingdao Hope Bio-Technology Co., Ltd., China) agar plates were used for the colony-counting assay. Bacteria were cultured at 37°C for 18 h in MHB or LB agar plates.
Antimicrobial activity of AMPs and antibiotics was performed by the broth microdilution assay as reported previously (Wiegand et al., [2008]). Briefly, bacteria were maintained in MHB medium at 37°C and grown to mid-logarithmic growth phase before being tested. Then, 50 μl of peptides (0–80 μM) and antibiotics (0–40,960 μM) with triplicate were mixed with an equal volume of bacterial suspension (2 × 10^6 CFU/ml) in 96-well plates and incubated for 18 h at 37°C. After incubation, minimum inhibitory concentration (MIC) was determined by the observation of turbidity, and minimum bactericidal concentration (MBC) was determined by colony counting. […] After overnight culture at 37°C, survival bacteria were counted.
Data set [2] concerns S. aureus. Kind of data set: microbe, parasite or virus in culture. Format: cell-based. The settings on record: Staphylococcus aureus, 18 h.
Experimental: (§1) S. aureus and S. enteritidis isolates were obtained from laboratory clinical isolates, and avian pathogenic E. coli was kindly provided by Professor Qingke Kong (College of Veterinary Medicine, Southwest University). […] Bacteria were cultured at 37°C for 18 h in MHB or LB agar plates.
(§2) Briefly, bacteria were maintained in MHB medium at 37°C and grown to mid-logarithmic growth phase before being tested. […] After incubation, minimum inhibitory concentration (MIC) was determined by the observation of turbidity, and minimum bactericidal concentration (MBC) was determined by colony counting. […] After overnight culture at 37°C, survival bacteria were counted.
Data set [3] deals with E. coli. Kind of data set: microbe, parasite or virus in culture. Format: cell-based. The settings on record: Escherichia coli, 18 h.
Experimental: as §1, §2
Another data set relates to red blood cells of mice. Kind of data set: Hemolytic activity assay. It is filed as cell-based.
A further data set has as its system PK-15 cells. Put plainly: Cytotoxicity, WST-1 assay. Format: cell-based. In general terms: Formazan colour is commonly taken as a measure of viable cells.
Data set [4] deals with S. aureus. Kind of data set: Time-killing curve assay. Format: cell-based, Staphylococcus aureus. The settings on record: at sub-MBC (lowest concentrations with synergy), followed to 180 min.
Experimental: (§3) The bacterial suspension was prepared as described above. […] After overnight culture, colony counting was performed.
The subject of data set [5] is E. coli. Kind of data set: Motility assay on semisolid agar. The settings on record: alone at 1/4 MIC, 18 h. It is filed as cell-based, Escherichia coli.
The subject of data set [6] is E. coli. Kind of data set: Time-killing curve assay. Format: cell-based, Escherichia coli. The settings on record: at sub-MBC (lowest concentrations with synergy), followed to 180 min.
Experimental: as §3
Data set [7] concerns E. coli. Format: cell-based, Escherichia coli.
Experimental: Drug resistance induction of E. coli was performed as previously reported. […] Bacteria from the highest concentration of drug combination were regrown, and MIC of erythromycin was measured, and then bacteria were treated again with the drug combination. The change in MIC was described by normalizing the MIC of the n generation to the MIC of first generation.
The subject of data set [8] is E. coli. Put plainly: SEM analysis of bacterial morphology. The settings on record: 1/16 MBC of each agent, 6 h, 37°C, 1 × 10^8 CFU/ml. It is filed as cell-based, Escherichia coli.
Experimental: After incubation, bacterial suspension was centrifuged and washed with PBS three times. Then, bacterial pellets were fixed with 1.5 ml of 2.5% glutaraldehyde in PBS at 4°C overnight. Finally, samples were sent to the Lilai biomedicine experiment center (Sichuan, China) for SEM analysis.
For data set [9], the system named is S. enteritidis. Kind of data set: Time-killing curve assay. The settings on record: at sub-MBC (lowest concentrations with synergy), followed to 180 min.
Experimental: as §3

Molecules are shown by their SMILES. Converted amounts (≈) assume the structure as drawn. Read-outs that look alike come from different tables or passages of the source. Where a SMILES comes first, the peptide text is derived from it.

Experimental for PK-15 cells: Cells were seeded at a density of 1 × 10^5 cells/well in 48-well plates and cultured overnight before being used for assays described below. For cytotoxicity assay, mice peritoneal macrophages and PK-15 cells were prepared in a 48-well plate as described above and incubated with or without tested compounds for 2 h at 37°C with CO2. After 2 h incubation, cells were washed with a cell culture medium twice and continued to culture for 22 or 46 h. After 24 and 48 h incubation, 150 μl of 10% WST-1 reagent was added according to the protocols of the manufacturer. After 20 min incubation, absorbance was measured at 450 nm with a microplate reader (Bio-Rad, Japan) and was corrected for absorbance at 630 nm. Untreated cells were set as a control. The percent of cell viability (%) was calculated using the following formula: Cell viability (%) =OD450nm of treated sample/OD450nm of control×100%
Experimental for red blood cells of mice: Murine erythrocytes and peritoneal macrophages were obtained from wild-type (WT) C57BL/6 mice (Chongqing Academy of Chinese Material Medical, China). Briefly, erythrocytes were obtained by collecting blood from the tail vein. […] The hemolytic activities of AMPs and antibiotics were determined as previously described (Song et al., [2020]). In brief, whole mice blood was centrifuged at 1,500 rpm for 5 min at room temperature and then washed three times with phosphate-buffered saline (PBS) to obtain red blood cells (RBCs). Subsequently, 2% RBCs in PBS were prepared. Then, aliquots of 100 μl RBCs were mixed with 100 μl tested compounds in PBS in polypropylene 96-well microtiter plates and incubated for 1 h at 37°C. After incubation, the plate was centrifuged for 5 min at 1,500 rpm and 100 μl supernatant was transferred to a new 96-well plate to determine the absorbance at 570 nm. RBCs in PBS served as negative control while RBCs treated with 1% Triton X-100 in PBS served as a positive control. The percent of hemolysis (%) was calculated using the following formula Hemolysise (%)=(OD570nm of treated sample-OD570nm of negative control)/(OD570nm of positive control-OD570nm of negative control)×100%

On to `CC1(C)S[C@@H]2[C@H](NC(=O)[C@H](N)c3ccccc3)C(=O)N2[C@H]1C(=O)O` [Ampicillin, ampicillin], for which the MBC with S. enteritidis [1] is more than 5120 µM; against S. aureus [2], 640 µM (≈ 224 µg/mL); against E. coli [3] it was 160 µM (≈ 55.9 µg/mL). Also, the MIC with S. enteritidis [1] is 5120 µM (≈ 1790 µg/mL); in the data set with S. aureus [2], 80 µM (≈ 28 µg/mL); against E. coli [3], 160 µM (≈ 55.9 µg/mL).

In the data set on red blood cells of mice (red cells of mouse, 1 h), `CC[C@H](C)[C@H](NC(=O)CNC(=O)[C@H](C)NC(=O)[C@H](C)NC(=O)[C@@H](NC(=O)[C@@H](NC(=O)[C@H](CC(N)=O)NC(=O)[C@@H](NC(=O)[C@H](C)NC(=O)[C@@H](NC(=O)[C@@H]1CCCN1C(=O)[C@@H](NC(=O)[C@H](CC(C)C)NC(=O)[C@@H]1CCCN1C(=O)[C@H](Cc1c[nH]c2ccccc12)NC(=O)[C@H](Cc1ccccc1)NC(=O)[C@H](CCCNC(=N)N)NC(=O)[C@H](CCCCN)NC(=O)[C@@H](NC(=O)[C@@H](N)CCCNC(=N)N)C(C)C)C(C)C)C(C)C)[C@@H](C)CC)[C@@H](C)O)C(C)C)C(=O)N[C@@H](CC(N)=O)C(=O)N[C@@H](CC(C)C)C(=O)N[C@@H](Cc1ccc(O)cc1)C(=O)N[C@@H](CCCCN)C(=O)N[C@@H](C)C(=O)N[C@H](C(=O)N[C@@H](CCCNC(=N)N)C(=O)N[C@@H](CCCNC(=N)N)C(=O)N[C@@H](CCCCN)C(=O)O)[C@@H](C)CC` [CATH-3] (H-RVKRFWPLVPVAINTVAAGINLYKAIRRK-OH) showed a hemolysis of less than 20%. In addition, the “toxicity to PK-15 cells” value in the data set on PK-15 cells is listed as “did not show toxicity”.

The term cell viability denotes the share of living cells, or the viability signal relative to a control. Read a high cell viability as better survival. As to `CC[C@H]1OC(=O)[C@H](C)[C@@H](O[C@H]2C[C@@](C)(OC)[C@@H](O)[C@H](C)O2)[C@H](C)[C@@H](O[C@@H]2O[C@H](C)C[C@H](N(C)C)[C@H]2O)[C@](C)(O)C[C@@H](C)C(=O)[C@H](C)[C@@H](O)[C@]1(C)O` [Erythromycin, erythromycin], the “time to kill all bacteria” value in the data set on S. aureus [4], in the data set on E. coli [6] and in the data set with S. enteritidis [9] was more than 180 min throughout. This molecule showed a hemolysis in the data set on red blood cells of mice of more than 95%. The MBC with S. enteritidis [1], in the data set with S. aureus [2] and in the data set with E. coli [3] was more than 5120 µM throughout. Also, the MIC in the data set on S. enteritidis [1] was determined as 80 µM (≈ 58.7 µg/mL); with S. aureus [2], 5120 µM (≈ 3760 µg/mL); with E. coli [3], 40 µM (≈ 29.4 µg/mL). The “effect on bacterial migration distance” value in the data set with E. coli [5] is on record as “did not affect bacterial migration distance”. The molecule also showed a cell viability in the data set on PK-15 cells of less than 30%. In the data set on E. coli [7], the “MIC of erythromycin increase” value is 16 fold. In the data set with E. coli [7] ([…], 14th generation, relative to first generation), this molecule yielded an MIC increase of 2 fold. In addition, in the data set with E. coli [8], the “E. coli cellular morphology by SEM” value is reported as “induced the formation of micelles”.

Regarding `CNC(C)C1CCC(N)C(OC2C(N)CC(N)C(OC3OCC(C)(O)C(NC)C3O)C2O)O1` (centres unmarked) [Gentamicin, gentamicin], the values for the MBC in the data set on S. enteritidis [1], with S. aureus [2] and in the data set with E. coli [3] were 5 µM (≈ 2.39 µg/mL), 40 µM (≈ 19.1 µg/mL) and 2.5 µM (≈ 1.19 µg/mL), respectively. Moreover, the figures for the MIC against S. enteritidis [1], in the data set with S. aureus [2] and in the data set on E. coli [3] were 2.5 µM (≈ 1.19 µg/mL), 20 µM (≈ 9.55 µg/mL) and 1.25 µM (≈ 0.597 µg/mL), respectively.

Molecule `CC[C@H](C)[C@H](NC(=O)[C@H](CCCCN)NC(=O)[C@H](CCCCN)NC(=O)[C@H](CC(C)C)NC(=O)[C@H](CCCNC(=N)N)NC(=O)[C@H](CCCCN)NC(=O)[C@H](CCCNC(=N)N)NC(=O)[C@@H](NC(=O)[C@H](CCCCN)NC(=O)[C@H](CCCCN)NC(=O)[C@H](CCCNC(=N)N)NC(=O)[C@H](CC(C)C)NC(=O)[C@H](CCCNC(=N)N)NC(=O)[C@H](CCCNC(=N)N)NC(=O)[C@H](Cc1ccccc1)NC(=O)[C@H](CCCNC(=N)N)NC(=O)CN)[C@@H](C)O)C(=O)NCC(=O)N[C@@H](CCCCN)C(=O)N[C@H](C(=O)N[C@@H](CC(C)C)C(=O)N[C@@H](CCCCN)C(=O)N[C@@H](Cc1c[nH]c2ccccc12)C(=O)N[C@H](C(=O)N1CCC[C@H]1C(=O)N1CCC[C@H]1C(=O)N[C@H](C(=O)N[C@H](C(=O)NCC(=O)N[C@@H](CO)C(=O)N[C@H](C(=O)N1CCC[C@H]1C(=O)N[C@@H](CC(C)C)C(=O)NCC(=O)N[C@@H](CS)C(=O)NCC(=O)O)[C@@H](C)CC)C(C)C)[C@@H](C)CC)[C@@H](C)CC)C(C)C` [PMAP-36] (H-GRFRRLRKKTRKRLKKIGKVLKWIPPIVGSIPLGCG-OH) yielded a hemolysis with red blood cells of mice (red cells of mouse, 1 h) of less than 20%. Moreover, the cell viability in the data set with PK-15 cells (2 h) is listed as less than 30%.

As to `CN(C)[C@@H]1C(O)=C(C(N)=O)C(=O)[C@@]2(O)C(O)=C3C(=O)c4c(O)cccc4[C@@](C)(O)[C@H]3C[C@@H]12` [Tetracycline, tetracycline], the MBC came to 640 µM (≈ 284 µg/mL) in the data set with S. enteritidis [1], 40 µM (≈ 17.8 µg/mL) against S. aureus [2] and 10 µM (≈ 4.44 µg/mL) against E. coli [3]. The MIC against S. enteritidis [1] is 40 µM (≈ 17.8 µg/mL).

Values taken from article PMC9335283 (Frontiers in Microbiology, 2022).
